Measured values published in patent US9512086B2, “Compound for promoting apoptosis of cancer cells and a pharmaceutical composition containing the same and uses thereof” (National Chiao Tung University, priority 2014, dated 2016).

System: A549 cell line
Assay: MTT cell viability, A549 cell line
Assay type: cell-based, human
Details: Homo sapiens, A549 cell line, 24 hours, MTT
Experimental: The above cell lines were plated in 96-well plates at a density of 1×10^4 cells/well for 16 to 20 hours. […] After drug treatment, the cell lines were washed with phosphate-buffered saline (hereinafter referred to PBS), and were replaced with fresh complete RPMI-1640 medium for 2 days. Thereafter, the medium was replaced and the cells were incubated with 0.5 mg/ml of 3-(4,5-dimethylthiazol-2-yl)-2,5-diphenyltetrazolium bromide reagent (hereinafter referred to MTT, Sigma Chemical Co., St. Louis, Mo.) in complete RPMI-1640 medium for 4 hours. The viable cells converted MTT to formazan that generates a blue-purple color when dissolved in dimethyl sulfoxide (hereinafter referred to DMSO). The intensity of formazan was measured at 565 nm using a plate reader (VERSAmax, Molecular Dynamics, Sunnyvale, Calif.). The relative percentage of cell viability was calculated by dividing the absorbance of treated cells by that of the control in each experiment.
After drug treatment, the cells were washed with PBS and replaced with fresh complete RPMI-1640 medium for 2 days. Thereafter, the medium was replaced and the cells were incubated with 0.5 mg/mL of MTT reagent (Sigma Chemical Co., St. Louis, Mo.) in complete RPMI-1640 medium for 4 hours. The intensity of formazan was measured at 565 nm using a plate reader (VERSAmax, Molecular Dynamics, Sunnyvale, Calif.). The relative percentage of cell viability was calculated by dividing the absorbance of treated cells by that of the control in each experiment.

SMILES | viability at 10 µM | viability at 20 µM | viability at 40 µM | viability at 60 µM | viability at 80 µM
CCCCCCCCCCOC(=O)CCC(=O)N1CCN(CCCOc2cc3c(Nc4ccc(F)c(Cl)c4)ncnc3cc2OC)CC1 [Analogue-16, decyl 4-(4-(3-(4-(3-chloro-4-fluorophenylamino)-7-methoxyquinazolin-6-yloxy)propyl)piperazin-1-yl)-4-oxobutanoate] | 95.7% | 88.2% | 15.5% | 3.9% | 2%
CCCCOC(=O)CCC(=O)N1CCN(CCCOc2cc3c(Nc4ccc(F)c(Cl)c4)ncnc3cc2OC)CC1 [Analogue-10, butyl 4-(4-(3-(4-(3-chloro-4-fluorophenylamino)-7-methoxyquinazolin-6-yloxy)propyl)piperazin-1-yl)-4-oxobutanoate] | 94.4% | 86% | 79.1% | 64.1% | 36.9%
CCCCCCCCCCCCCCCCCCOC(=O)CCC(=O)N1CCN(CCCOc2cc3c(Nc4ccc(F)c(Cl)c4)ncnc3cc2OC)CC1 [Analogue-24, octadecyl 4-(4-(3-(4-(3-chloro-4-fluorophenylamino)-7-methoxyquinazolin-6-yloxy)propyl)piperazin-1-yl)-4-oxobutanoate] | 94.8% | 90.5% | 91% | 87.2% | 86.7%
CCCCCCCOC(=O)CCC(=O)N1CCN(CCCOc2cc3c(Nc4ccc(F)c(Cl)c4)ncnc3cc2OC)CC1 [Analogue-13, heptyl 4-(4-(3-(4-(3-chloro-4-fluorophenylamino)-7-methoxyquinazolin-6-yloxy)propyl)piperazin-1-yl)-4-oxobutanoate] | 89.1% | 79.9% | 59.1% | 35.7% | 27.2%
CCCCCOC(=O)CCC(=O)N1CCN(CCCOc2cc3c(Nc4ccc(F)c(Cl)c4)ncnc3cc2OC)CC1 [Analogue-11, pentyl 4-(4-(3-(4-(3-chloro-4-fluorophenylamino)-7-methoxyquinazolin-6-yloxy)propyl)piperazin-1-yl)-4-oxobutanoate] | 87.1% | 81.2% | 63.6% | 30% | 18.2%
CCOC(=O)CCC(=O)N1CCN(CCCOc2cc3c(Nc4ccc(F)c(Cl)c4)ncnc3cc2OC)CC1 [Analogue-8, ethyl 4-(4-(3-(4-(3-chloro-4-fluorophenylamino)-7-methoxyquinazolin-6-yloxy)propyl)piperazin-1-yl)-4-oxobutanoate] | 77.6% | 70% | 67.4% | 61.6% | 35.6%
CCCCCCOC(=O)CCC(=O)N1CCN(CCCOc2cc3c(Nc4ccc(F)c(Cl)c4)ncnc3cc2OC)CC1 [Analogue-12, hexyl 4-(4-(3-(4-(3-chloro-4-fluorophenylamino)-7-methoxyquinazolin-6-yloxy)propyl)piperazin-1-yl)-4-oxobutanoate] | 89.3% | 85.1% | 74.2% | 63.6% | 42.9%
CCCCCCCCCOC(=O)CCC(=O)N1CCN(CCCOc2cc3c(Nc4ccc(F)c(Cl)c4)ncnc3cc2OC)CC1 [Analogue-15, nonyl 4-(4-(3-(4-(3-chloro-4-fluorophenylamino)-7-methoxyquinazolin-6-yloxy)propyl)piperazin-1-yl)-4-oxobutanoate] | 90% | 79.7% | 17.9% | 10.3% | 7.8%
CCCCCCCCCCCCCCCCCOC(=O)CCC(=O)N1CCN(CCCOc2cc3c(Nc4ccc(F)c(Cl)c4)ncnc3cc2OC)CC1 [Analogue-23, heptadecyl 4-(4-(3-(4-(3-chloro-4-fluorophenylamino)-7-methoxyquinazolin-6-yloxy)propyl)piperazin-1-yl)-4-oxobutanoate] | 95.7% | 97.2% | 85.2% | 84.1% | 83.2%
CCCCCCCCCCCCCCCOC(=O)CCC(=O)N1CCN(CCCOc2cc3c(Nc4ccc(F)c(Cl)c4)ncnc3cc2OC)CC1 [Analogue-21, pentadecyl 4-(4-(3-(4-(3-chloro-4-fluorophenylamino)-7-methoxyquinazolin-6-yloxy)propyl)piperazin-1-yl)-4-oxobutanoate] | 92% | 91.2% | 85.5% | 81.6% | 81.1%
CCCOC(=O)CCC(=O)N1CCN(CCCOc2cc3c(Nc4ccc(F)c(Cl)c4)ncnc3cc2OC)CC1 [Analogue-9, propyl 4-(4-(3-(4-(3-chloro-4-fluorophenylamino)-7-methoxyquinazolin-6-yloxy)propyl)piperazin-1-yl)-4-oxobutanoate] | 95.1% | 87% | 80.9% | 70.4% | 23.4%
COC(=O)CCCCCC(=O)N1CCN(CCCOc2cc3c(Nc4ccc(F)c(Cl)c4)ncnc3cc2OC)CC1 [Analogue-5, methyl 7-(4-(3-(4-(3-chloro-4-fluorophenylamino)-7-methoxyquinazolin-6-yloxy)propyl)piperazin-1-yl)-7-oxoheptanoate] | 95.2% | 91.7% | 90.1% | 83.4% | 82.4%
COC(=O)CCCCC(=O)N1CCN(CCCOc2cc3c(Nc4ccc(F)c(Cl)c4)ncnc3cc2OC)CC1 [Analogue-4, methyl 6-(4-(3-(4-(3-chloro-4-fluorophenylamino)-7-methoxyquinazolin-6-yloxy)propyl)piperazin-1-yl)-6-oxohexanoate] | 94.6% | 90.4% | 84.3% | 83.3% | 79.4%
CCCCCCCCCCCOC(=O)CCC(=O)N1CCN(CCCOc2cc3c(Nc4ccc(F)c(Cl)c4)ncnc3cc2OC)CC1 [Analogue-17, undecyl 4-(4-(3-(4-(3-chloro-4-fluorophenylamino)-7-methoxyquinazolin-6-yloxy)propyl)piperazin-1-yl)-4-oxobutanoate] | 93.4% | 85.2% | 12% | 3.9% | 2.8%
CCCCCCCCCCCCCCCCCCCCOC(=O)CCC(=O)N1CCN(CCCOc2cc3c(Nc4ccc(F)c(Cl)c4)ncnc3cc2OC)CC1 [Analogue-26, icosyl 4-(4-(3-(4-(3-chloro-4-fluorophenylamino)-7-methoxyquinazolin-6-yloxy)propyl)piperazin-1-yl)-4-oxobutanoate] | 94% | 90.8% | 87.1% | 86.9% | 85.2%
CCCCCCCCCCCCCCCCOC(=O)CCC(=O)N1CCN(CCCOc2cc3c(Nc4ccc(F)c(Cl)c4)ncnc3cc2OC)CC1 [Analogue-22, hexadecyl 4-(4-(3-(4-(3-chloro-4-fluorophenylamino)-7-methoxyquinazolin-6-yloxy)propyl)piperazin-1-yl)-4-oxobutanoate] | 97.7% | 91.7% | 82.6% | 80% | 74.3%
COC(=O)CCCCCCC(=O)N1CCN(CCCOc2cc3c(Nc4ccc(F)c(Cl)c4)ncnc3cc2OC)CC1 [Analogue-6, methyl 8-(4-(3-(4-(3-chloro-4-fluorophenylamino)-7-methoxyquinazolin-6-yloxy)propyl)piperazin-1-yl)-8-oxooctanoate] | 92% | 94.3% | 90.7% | 88.5% | 88.9%
CCCCCCCCOC(=O)CCC(=O)N1CCN(CCCOc2cc3c(Nc4ccc(F)c(Cl)c4)ncnc3cc2OC)CC1 [Analogue-14, octyl 4-(4-(3-(4-(3-chloro-4-fluorophenylamino)-7-methoxyquinazolin-6-yloxy)propyl)piperazin-1-yl)-4-oxobutanoate] | 87.3% | 80% | 48.7% | 26% | 21.7%
COC(=O)CCCC(=O)N1CCN(CCCOc2cc3c(Nc4ccc(F)c(Cl)c4)ncnc3cc2OC)CC1 [Analogue-3, methyl 5-(4-(3-(4-(3-chloro-4-fluorophenylamino)-7-methoxyquinazolin-6-yloxy)propyl)piperazin-1-yl)-5-oxopentanoate] | 99.9% | 94.8% | 91.9% | 91.3% | 89.8%
CCCCCCCCCCCCCOC(=O)CCC(=O)N1CCN(CCCOc2cc3c(Nc4ccc(F)c(Cl)c4)ncnc3cc2OC)CC1 [Analogue-19, tridecyl 4-(4-(3-(4-(3-chloro-4-fluorophenylamino)-7-methoxyquinazolin-6-yloxy)propyl)piperazin-1-yl)-4-oxobutanoate] | 93.7% | 93.8% | 71.1% | 20.6% | 6.8%
